Tests used:
human NOP receptor = human NOP receptor (Homo sapiens, UniProt P41146); experiment: Calcium mobilization in CHO cells expressing human NOP receptor and Gαqi5; format: cell-based; conditions: inactive = inactive up to 1 μM
Description: (§1) Cells were maintained in culture medium consisting of Dulbecco's MEM/HAM'S F-12 (50/50) supplemented with 10% foetal calf serum, penicillin (100 IU/ml), streptomycin (100 μg/ml), fungizone (2.5 μg/ml), geneticin (G418; 200 μg/ml) and hygromycin B (200 mg/ml). Cell cultures were kept at 37° C. in 5% CO2 humidified air. In all cases experimental cultures were free from selection agents (hygromycin B, G418). When confluence was reached (3-4 days), cells were sub-cultured as required using trypsin EDTA and used for experimentation. Cells were seeded at a density of 50,000 cells/well into 96-well black, clear-bottom plates. After 24 hours incubation the cells were loaded with medium supplemented with 2.5 mM probenecid, 3 μM of the calcium sensitive fluorescent dye Fluo-4 AM and 0.01% pluronic acid, for 30 min at 37° C. Afterwards the loading solution was aspirated and 100 μl/well of assay buffer: Hank's Balanced Salt Solution (HBSS) supplemented with 20 mM HEPES, 2.5 mM probenecid and 500 μM Brilliant Black (Aldrich) was added. […] On-line additions were carried out in a volume of 50 μl/well. To facilitate drug diffusion into the wells in antagonist type experiments, the present studies were performed at 37° C. and three cycles of mixing (25 μl from each well moved up and down 3 times) were performed immediately after antagonist injection to the wells.
(§2) Four mice were monitored in parallel. […] Animals locomotion was recorded for 60 min.

DOP receptor = target: T1, DOP receptor (Homo sapiens, UniProt P41143); experiment: Calcium mobilization in CHO cells expressing DOP receptor and GαqG66Di5; format: cell-based
T1 construct: expressed in transfected cells; host or cells: CHO cells co-expressing GαqG66Di5
Description: as §1, with “Cell” for “Cells were maintained in culture medium consisting of Dulbecco's MEM/HAM'S F-12 (50/50) supplemented with 10% foetal calf serum, penicillin (100 IU/ml), streptomycin (100 μg/ml), fungizone (2.5 μg/ml), geneticin (G418; 200 μg/ml) and hygromycin B (200 mg/ml). Cell”
as §2

KOP receptor = KOP receptor (Homo sapiens, UniProt P41145); experiment: Calcium mobilization in CHO cells expressing KOP receptor and Gαqi5; format: cell-based; conditions: inactive = inactive up to 1 μM
Description: as §1, with “To facilitate drug diffusion into the wells in antagonist type experiments, the present studies were performed at 37° C. and three cycles of mixing (25 μl from each well moved up and down 3 times) were performed immediately after antagonist injection to the wells.” left out
as §2

[1] = system: electrically stimulated mouse vas deferens; experiment: Electrically stimulated mouse vas deferens
Description: The bath temperature was set at 33° C. Tissues were continuously stimulated through two platinum ring electrodes with supramaximal rectangular pulses of 1 ms duration and 0.05 Hz frequency. A resting tension of 0.3 g was applied to the vas deferens.
assuming a slope value equal to unity, where CR indicate the ratio between agonist potency in the presence and absence of antagonist.

[2] = system: electrically stimulated mouse vas deferens; conditions: versus N/OFQ; Spagnolo et al. 2007; cited from earlier work
MOP receptor = MOP receptor (Homo sapiens, UniProt P35372); experiment: Calcium mobilization in CHO cells expressing MOP receptor and Gαqi5; format: cell-based; conditions: inactive = inactive up to 1 μM
Description: as §1, with “Cell” for “Cells were maintained in culture medium consisting of Dulbecco's MEM/HAM'S F-12 (50/50) supplemented with 10% foetal calf serum, penicillin (100 IU/ml), streptomycin (100 μg/ml), fungizone (2.5 μg/ml), geneticin (G418; 200 μg/ml) and hygromycin B (200 mg/ml). Cell”
as §2

[3] = system: vas deferens tissues taken from NOP(+/+) mice; experiment: Electrically stimulated vas deferens from NOP(+/+) mice; design: species or system mouse
Description: The bath temperature was set at 33° C. Tissues were continuously stimulated through two platinum ring electrodes with supramaximal rectangular pulses of 1 ms duration and 0.05 Hz frequency. A resting tension of 0.3 g was applied to the vas deferens. […] Following an equilibration period of 60 min, the contractions induced by electrical field stimulation were stable.

[4] = system: vas deferens tissues taken from NOP(−/−) mice; experiment: Electrically stimulated vas deferens from NOP(−/−) mice; design: species or system mouse
Description: The mouse vas deferens were prepared as previously described (Calto et al., Eur J Pharmacol. 311, (1996) R3-5). Tissues were suspended in 5 ml organ baths containing heated Krebs solution (composition in mM: NaCl 118.5, KCl 4.7, KH2PO4 1.2, NaHCO3 25, glucose 10 and CaCl2 2.5) oxygenated with 95% O2 and 5% CO2. The bath temperature was set at 33° C. Tissues were continuously stimulated through two platinum ring electrodes with supramaximal rectangular pulses of 1 ms duration and 0.05 Hz frequency. A resting tension of 0.3 g was applied to the vas deferens. The electrically evoked contractions (twitches) were measured isotonically with a strain gauge transducer (Basile 7006, UgoBasile s.r.l., Varese, Italy) and recorded with the PC based acquisition system Power Lab (ADInstrument, USA). Following an equilibration period of 60 min, the contractions induced by electrical field stimulation were stable.

Chain of human NOP receptor (P41146 whole entry): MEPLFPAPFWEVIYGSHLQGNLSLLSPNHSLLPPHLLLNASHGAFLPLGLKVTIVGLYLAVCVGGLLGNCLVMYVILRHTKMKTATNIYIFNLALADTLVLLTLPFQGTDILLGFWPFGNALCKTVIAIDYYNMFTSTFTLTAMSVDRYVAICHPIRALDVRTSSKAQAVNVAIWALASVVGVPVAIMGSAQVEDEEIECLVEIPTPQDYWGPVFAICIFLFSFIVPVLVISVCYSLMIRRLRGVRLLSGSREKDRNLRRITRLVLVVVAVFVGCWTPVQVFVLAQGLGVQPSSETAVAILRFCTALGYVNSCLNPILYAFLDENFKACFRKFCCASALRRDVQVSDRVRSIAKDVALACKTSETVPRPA
T1 sequence (P41143 whole entry): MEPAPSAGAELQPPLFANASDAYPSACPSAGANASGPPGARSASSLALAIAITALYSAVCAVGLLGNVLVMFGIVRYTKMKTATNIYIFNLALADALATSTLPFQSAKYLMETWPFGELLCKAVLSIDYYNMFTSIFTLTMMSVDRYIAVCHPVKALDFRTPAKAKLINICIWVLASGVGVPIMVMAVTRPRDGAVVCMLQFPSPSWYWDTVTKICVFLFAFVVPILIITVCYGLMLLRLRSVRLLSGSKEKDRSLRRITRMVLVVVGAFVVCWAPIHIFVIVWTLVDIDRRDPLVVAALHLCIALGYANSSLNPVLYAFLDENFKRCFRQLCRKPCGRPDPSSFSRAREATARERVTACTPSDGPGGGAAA
Chain of KOP receptor (P41145 whole entry, the tested form may be a part): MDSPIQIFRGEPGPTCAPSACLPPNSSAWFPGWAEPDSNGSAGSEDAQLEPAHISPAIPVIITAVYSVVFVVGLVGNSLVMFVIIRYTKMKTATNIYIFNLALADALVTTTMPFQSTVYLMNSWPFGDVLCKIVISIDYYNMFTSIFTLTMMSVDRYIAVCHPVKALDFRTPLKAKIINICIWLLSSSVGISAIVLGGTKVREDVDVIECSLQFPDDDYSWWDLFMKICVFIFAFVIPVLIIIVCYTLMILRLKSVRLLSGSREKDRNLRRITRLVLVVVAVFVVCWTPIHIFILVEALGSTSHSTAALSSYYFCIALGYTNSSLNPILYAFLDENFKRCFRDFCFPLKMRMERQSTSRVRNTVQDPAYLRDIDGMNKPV
Chain of MOP receptor (P35372 whole entry): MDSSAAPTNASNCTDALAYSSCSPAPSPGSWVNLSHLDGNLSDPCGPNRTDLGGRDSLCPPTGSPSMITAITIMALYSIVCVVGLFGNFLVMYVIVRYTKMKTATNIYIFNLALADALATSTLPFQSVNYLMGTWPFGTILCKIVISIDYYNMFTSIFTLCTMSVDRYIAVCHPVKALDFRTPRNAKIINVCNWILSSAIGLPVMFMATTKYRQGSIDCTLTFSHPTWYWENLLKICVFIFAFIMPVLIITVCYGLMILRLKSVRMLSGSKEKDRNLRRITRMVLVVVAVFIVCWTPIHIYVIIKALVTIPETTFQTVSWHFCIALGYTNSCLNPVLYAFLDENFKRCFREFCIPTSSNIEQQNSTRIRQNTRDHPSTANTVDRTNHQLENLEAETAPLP

In the case of `C[C@@H](NC(=O)[C@@H](N)Cc1ccc(O)cc1)C(=O)N[C@@H](Cc1ccccc1)C(=O)NCC(=O)N[C@@H](Cc1ccc(O)cc1)C(=O)N1CCC[C@H]1C(=O)N[C@@H](CO)C(N)=O` [Dermorphin], the “pEC50 (CL95%)” value (human NOP receptor) is reported as “inactive”, the pEC50 (DOP receptor; inactive = inactive up to 1 μM) is reported as “inactive” and the pEC50 (KOP receptor) is reported as “inactive”.
For `Cc1cccc2c1CC[C@H](CN1CCC(c3c(Cl)cccc3Cl)CC1)C[C@@H]2O` [SB-612111, reference compound], the “effect per se on control twitches” value ([1]; 100 nM) is listed as “did not modify per se the control twitches”, the Kb ([1]; Mus musculus, read-out: SB-612111 pKB (CL95%), SB-612111 100 nM versus N/OFQ (converted)) is listed as 3.31 nM and the “SB-612111 pKB, literature” value [2] is listed as 8.50.
For DPDPE, the “pEC50 (CL95%)” value (human NOP receptor) was “inactive”, the pEC50 (MOP receptor) was “inactive” and the maximal effects (DOP receptor) was 86±14%. The pEC50 (KOP receptor) was “inactive”, the pEC50 ([3]; CL95% in brackets) was 8.45 (8.19-8.71) and the Emax ([3]; maximal inhibition of electrically induced contractions) was 91 ± 3%. The Emax [4] was 94 ± 3 and the pEC50 ([4]; CL95% in brackets) was 8.42 (8.16-8.68).
In the case of Dynorphin A, the “pEC50 (CL95%)” value (human NOP receptor) is reported as “inactive”.
